target: T1, SHP2 (Homo sapiens, UniProt Q06124); assay: SHP2 Allosteric Inhibition Assay; format: biochemical; details: 0.5 nM SHP2 activated with 0.5 μM peptide IRS1_pY1172(dPEG8)pY1222; surrogate substrate DiFMUP, prompt fluorescence, 25° C.
T1 sequence (Q06124 1-593): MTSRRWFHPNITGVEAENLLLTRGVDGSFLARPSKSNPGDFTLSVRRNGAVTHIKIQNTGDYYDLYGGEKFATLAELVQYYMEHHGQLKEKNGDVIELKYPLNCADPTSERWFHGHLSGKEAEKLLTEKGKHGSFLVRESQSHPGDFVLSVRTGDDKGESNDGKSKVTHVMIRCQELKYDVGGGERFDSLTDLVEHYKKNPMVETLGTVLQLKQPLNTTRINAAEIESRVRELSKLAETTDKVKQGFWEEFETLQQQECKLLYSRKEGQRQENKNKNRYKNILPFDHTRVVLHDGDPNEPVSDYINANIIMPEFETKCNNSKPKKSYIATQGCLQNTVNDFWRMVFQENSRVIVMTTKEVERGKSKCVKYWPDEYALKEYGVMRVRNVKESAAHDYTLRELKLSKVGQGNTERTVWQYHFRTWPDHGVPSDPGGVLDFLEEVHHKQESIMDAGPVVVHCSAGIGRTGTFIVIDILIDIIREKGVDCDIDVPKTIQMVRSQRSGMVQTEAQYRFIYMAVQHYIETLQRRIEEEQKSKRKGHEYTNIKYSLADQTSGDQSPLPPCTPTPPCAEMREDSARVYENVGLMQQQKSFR
Text: SHP2 Allosteric Inhibition Assay
SHP2 is allosterically activated through binding of bis-tyrosyl-phorphorylated peptides to its Src Homology 2 (SH2) domains. The latter activation step leads to the release of the auto-inhibitory interface of SHP2, which in turn renders the SHP2 protein tyrosine phosphatase (PTP) active and available for substrate recognition and reaction catalysis. The catalytic activity of SHP2 was monitored using the surrogate substrate DiFMUP in a prompt fluorescence assay format.
After 30-60 minutes incubation at 25° C., the surrogate substrate DiFMUP (Invitrogen, cat# D6567) was added to the reaction and incubated at 25° C. for 30 minutes. […] The inhibitor dose response curves were analyzed using normalized IC50 regression curve fitting with control based normalization.

Compound | AC50
CC1(CN)CCN(c2cnc(Sc3ccnc(N)c3Cl)cn2)CC1O (single isomer, unassigned) [Example 39] | 28.2 nM
CC1(CN)CCN(c2cnc(Sc3ccnc(N)c3Cl)cn2)CC1O (single isomer, unassigned) [Example 40] | 108 nM
CC1(CN)CCN(c2cnc(Sc3ccnc(N)c3Cl)cn2)CC1O (single isomer, unassigned) [Example 51] | 72.3 nM
CC1(CN)CCN(c2cnc(Sc3ccnc(N)c3Cl)cn2)CC1O (single isomer, unassigned) [Example 52] | 791 nM
C[C@@H]1OCC2(CCN(c3cnc(Sc4ccnc(N)c4Cl)cn3)CC2)[C@@H]1N [Example 3, (3S,4S)-8-(5-((2-amino-3-chloropyridin-4-yl)thio)pyrazin-2-yl)-3-methyl-2-oxa-8-azaspiro[4.5]decan-4-amine] | 7.9 nM
NC1=NC2(CCN(c3cnc(Sc4ccnc(Cl)c4Cl)cn3)CC2)CO1 [Example 4, 8-(5-((2,3-dichloropyridin-4-yl)thio)pyrazin-2-yl)-3-oxa-1,8-diazaspiro[4.5]dec-1-en-2-amine] | 17.4 nM
CC1(N)CCN(c2cnc(Sc3cccnc3C(F)(F)F)cn2)CC1 [Example 6, 4-methyl-1-(5-((2-(trifluoromethyl)pyridin-3-yl)thio)pyrazin-2-yl)piperidin-4-amine] | 127 nM
Nc1nccc(Sc2cnc(N3CCC4(CCCCN4)CC3)cn2)c1Cl [Example 8, 4-((5-(1,9-diazaspiro[5.5]undecan-9-yl)pyrazin-2-yl)thio)-3-chloropyridin-2-amine] | 434 nM
CC1(CN)CCN(c2cnc(Sc3ccc(N)cc3Cl)cn2)CC1 [Example 9, 4-((5-(4-(aminomethyl)-4-methylpiperidin-1-yl)pyrazin-2-yl)thio)-3-chloroaniline] | 30.6 nM
C[C@H]1OCC2(CCN(c3cnc(Sc4ccnc(N)c4Cl)cn3)CC2)[C@@H]1N [Example 12] | 5.7 nM
Nc1cc(Sc2cnc(N3CCC4(CC3)C[C@H](O)C[C@H]4N)cn2)c(Cl)c(Cl)n1 [Example 15] | 6 nM
CCC1(CN)CCN(c2cnc(Sc3ccnc(N)c3Cl)cn2)CC1 [Example 18] | 8.2 nM
CC1(CN)CCN(c2cnc(Sc3cccc(N)c3Cl)cn2)CC1 [Example 22] | 10 nM
Nc1cc(Sc2cnc(N3CCC4(CC3)COC[C@H]4N)cn2)c(Cl)c(Cl)n1 [Example 24] | 10.4 nM
CC1(CN)CCN(c2cnc(Sc3ccnc(N)c3Cl)cn2)CC1 [Example 25] | 10.7 nM
C[C@@H]1OCC2(CCN(c3cnc(Sc4cc(N)nc(Cl)c4Cl)cn3)CC2)[C@@H]1N [Example 28] | 14.1 nM
CC(C)CC1(CN)CCN(c2cnc(Sc3ccnc(N)c3Cl)cn2)CC1 [Example 29] | 15.5 nM

Compound | AC50
CCCC1(CN)CCN(c2cnc(Sc3ccnc(N)c3Cl)cn2)CC1 [Example 31] | 17.6 nM
CC(C)C1(CN)CCN(c2cnc(Sc3ccnc(N)c3Cl)cn2)CC1 [Example 32] | 17.8 nM
CCCC1(N)CCN(c2cnc(Sc3ccnc(N)c3Cl)cn2)CC1 [Example 42] | 31.3 nM
COC(=O)C1(CN)CCN(c2cnc(Sc3ccnc(N)c3Cl)cn2)CC1 [Example 44] | 45.7 nM
NCC1(c2ccccn2)CCN(c2cnc(Sc3ccnc(N)c3Cl)cn2)CC1 [Example 45] | 47.1 nM
CC1(CN)CCN(c2cnc(Sc3cccnc3C(F)(F)F)cn2)CC1 [Example 46] | 47.6 nM
Nc1nccc(Sc2cnc(N3CCC4(CCCN4)CC3)cn2)c1Cl [Example 48] | 63.4 nM
NCC1(CO)CCN(c2cnc(Sc3ccnc(N)c3Cl)cn2)CC1 [Example 50] | 70.5 nM
Nc1nccc(Sc2cnc(N3CCC4(CC3)COCCN4)cn2)c1Cl [Example 53] | 215 nM
Nc1nccc(Sc2cnc(N3CCC(N)(CO)CC3)cn2)c1Cl [Example 54] | 381 nM
N[C@@H]1[C@H](O)[C@@H](O)CC12CCN(c1cnc(Sc3ccnc(Cl)c3Cl)cn1)CC2 [Example 55] | 5.1 nM
Nc1nccc(Sc2cnc(N3CCC4(CC3)C[C@H](O)[C@@H](O)[C@H]4N)cn2)c1Cl [Example 57] | 43.8 nM
C[C@H]1OCC2(CCN(c3cnc(Sc4ccnc(N)c4Cl)cn3)CC2)[C@H]1N [Example 58] | 454 nM
CC1(CN)CCN(c2cnc(Sc3cc(N)nc(Cl)c3Cl)cn2)CC1 [Example 59] | 155 nM
C[C@H]1C[C@@H](N)C2(CCN(c3cnc(Sc4cc(N)nc(Cl)c4Cl)cn3)CC2)C1 [Example 60] | 35.1 nM
Nc1cc(Sc2cnc(N3CCC4(CC3)C[C@H](F)C[C@H]4N)cn2)c(Cl)c(Cl)n1 [Example 61] | 145 nM

Now from value to molecule:

AC50 | Compound
67 nM | N#Cc1c(Sc2cnc(N3CCC4(CCC[C@H]4N)CC3)cn2)ccnc1Cl [Example 5, (R)-4-((5-(1-amino-8-azaspiro[4.5]decan-8-yl)pyrazin-2-yl)thio)-2-chloronicotinonitrile]
213 nM | N[C@@H]1CCCC12CCN(c1cnc(Sc3cnnc(O)c3Cl)cn1)CC2 [Example 7, (R)-5-((5-(1-amino-8-azaspiro[4.5]decan-8-yl)pyrazin-2-yl)thio)-4-chloropyridazin-3-ol]
3.9 nM | Nc1nccc(Sc2cnc(N3CCC4(CC3)C[C@H](F)C[C@H]4N)cn2)c1Cl [Example 10]
4.1 nM | Nc1nccc(Sc2cnc(N3CCC4(CC3)C[C@H](O)C[C@H]4N)cn2)c1Cl [Example 11]
5.9 nM | CC1CCC2(CCN(c3cnc(Sc4ccnc(N)c4Cl)cn3)CC2)[C@@H]1N (stereo partly shown) [Example 13]
6 nM | C[C@H]1C[C@@H](N)C2(CCN(c3cnc(Sc4ccnc(N)c4Cl)cn3)CC2)C1 [Example 14]
6.1 nM | Nc1nccc(Sc2cnc(N3CCC4(CC3)COC[C@H]4N)cn2)c1Cl [Example 16]
6.2 nM | CO[C@H]1C[C@@H](N)C2(CCN(c3cnc(Sc4ccnc(N)c4Cl)cn3)CC2)C1 [Example 17]
8.5 nM | N[C@@H]1COCC12CCN(c1cnc(Sc3ccnc(Cl)c3Cl)cn1)CC2 [Example 19]
8.7 nM | N[C@@H]1C[C@H](O)CC12CCN(c1cnc(Sc3ccnc(Cl)c3Cl)cn1)CC2 [Example 20]
10.4 nM | N[C@@H]1COCC12CCN(c1cnc(Sc3ccncc3Cl)cn1)CC2 [Example 23]
11.5 nM | CC1(O)C[C@@H](N)C2(CCN(c3cnc(Sc4ccnc(N)c4Cl)cn3)CC2)C1 (stereo partly shown) [Example 26]
12.1 nM | Nc1nccc(Sc2cnc(N3CCC4(CC3)C[C@@H](F)C[C@H]4N)cn2)c1Cl [Example 27]
17 nM | C[C@@H]1C[C@@H](N)C2(CCN(c3cnc(Sc4ccnc(N)c4Cl)cn3)CC2)C1 [Example 30]
19.3 nM | Nc1cc(Sc2cnc(N3CCC4(CCC[C@H]4N)CC3)cn2)c(Cl)c(Cl)n1 [Example 33]
19.6 nM | N[C@@H]1COCC12CCN(c1cnc(Sc3ccnc(F)c3Cl)cn1)CC2 [Example 34]
20.8 nM | N[C@@H]1CCCC12CCN(c1cnc(Sc3cccnc3C(F)(F)F)cn1)CC2 [Example 35]

AC50 | Compound
23.6 nM | CC1(N)CCN(c2cnc(Sc3cccc(N)c3Cl)cn2)CC1 [Example 36]
24 nM | Nc1cc(Sc2cnc(N3CCC4(CCC[C@H]4N)CC3)cn2)c(Cl)c(N)n1 [Example 37]
24.7 nM | CC1CCC2(CCN(c3cnc(Sc4ccnc(N)c4Cl)cn3)CC2)[C@@H]1N (stereo partly shown) [Example 38]
28.2 nM | CC1(O)C[C@@H](N)C2(CCN(c3cnc(Sc4ccnc(N)c4Cl)cn3)CC2)C1 (stereo partly shown) [Example 41]
42.6 nM | CO[C@@H]1C[C@@H](N)C2(CCN(c3cnc(Sc4ccnc(N)c4Cl)cn3)CC2)C1 [Example 43]
56 nM | N[C@@H]1COCC12CCN(c1cnc(Sc3cccnc3C(F)(F)F)cn1)CC2 [Example 47]
66.1 nM | N[C@@H]1COCC12CCN(c1cnc(Sc3ccncc3C(F)(F)F)cn1)CC2 [Example 49]
23.8 nM | Nc1nccc(Sc2cnc(N3CCC4(CC3)CC(F)(F)C[C@H]4N)cn2)c1Cl [Example 56]
44.6 nM | CC(C)c1ccccc1Sc1cnc(N2CCC3(CCC[C@H]3N)CC2)cn1 [Example 63]
48.2 nM | Cc1cccc(Sc2cnc(N3CCC4(CCC[C@H]4N)CC3)cn2)c1 [Example 64]
30.5 nM | N[C@@H]1CCCC12CCN(c1cnc(Sc3ccccc3OC(F)(F)F)cn1)CC2 [Example 65]
1460 nM | CC(C)(C)c1ccccc1Sc1cnc(N2CCC3(CCC[C@H]3N)CC2)cn1 [Example 66]
920 nM | N[C@@H]1CCCC12CCN(c1cnc(Sc3ccccc3C(F)(F)F)cn1)CC2 [Example 67]
968 nM | Nc1ccccc1Sc1cnc(N2CCC3(CCC[C@H]3N)CC2)cn1 [Example 68]
41.8 nM | COc1ccccc1Sc1cnc(N2CCC3(CCC[C@H]3N)CC2)cn1 [Example 69]
30.4 nM | N[C@@H]1CCCC12CCN(c1cnc(Sc3ccccc3F)cn1)CC2 [Example 70]
64.6 nM | N[C@@H]1CCCC12CCN(c1cnc(Sc3ccccc3)cn1)CC2 [Example 72]
